{"source": "patent US20230058134A1", "about": "“ALDOSE REDUCTASE INHIBITORS FOR THE TREATMENT OF ACUTE RESPIRATORY DISTRESS SYNDROME, ACUTE LUNG INFLAMMATION/INJURY, CARDIAC INJURY AND ANTI-VIRAL THERAPY” (Applied Therapeutics, Inc., priority 2020, published 2023)", "key": {"[1]": {"system": "COVID-19 with severe ARDS", "experiment": "Treatment of critical COVID-19 patients with severe ARDS under Emergency Investigational New Drug Applications", "type": "in vivo, human", "settings": "1500 mg twice a day", "protocol": "Five critical COVID-19 patients admitted to the intensive care unit with severe ARDS were treated with Compound A (caficrestat) 1500 mg twice a day. All patients were on 100% high flow oxygen, had failed all other available treatment options, including anti-IL^6/anti-IL-17 therapy, and were at high risk of rapid progression to mechanical ventilation. The patients were treated under Emergency Investigational New Drug Applications as the last option to prevent mortality."}, "[2]": {"system": "COVID-19 with signs of ARDS and/or ALI", "experiment": "Treatment of Critical COVID-19 (single-patient example written in present tense)", "type": "in vivo", "settings": "one patient, 1500 mg oral twice a day"}, "COVID-19 infection": {"system": "COVID-19 infection", "experiment": "Open-label prospective phase 2 study of Compound A in high risk patients hospitalized with COVID-19, with matched registry controls", "settings": "for Median LOS (95% CI): length of hospital stay, 1500 mg twice daily up to 14 days; for Estimated difference in median LOS / Estimated difference in median LOS (95% CI): Hodges-Lehmann estimate"}, "[3]": {"settings": "10 participants, 1500 mg twice daily"}, "[4]": {"settings": "eight participants who survived and were discharged"}}, "note": "“Also recorded” adds a separate entry of the source.", "data": [{"smiles": "O=C(O)Cc1nn(Cc2nc3cc(C(F)(F)F)ccc3s2)c(=O)c2nccnc12", "note": "[Compound A, caficrestat]", "values": [{"measurement": "patients recovered and discharged from the hospital", "setting": "[1]; five ICU patients on 100% high flow oxygen", "value": "Four of the five"}, {"measurement": "patients who died", "setting": "[1]; five ICU patients, patient had a do not resuscitate order", "value": "One patient"}, {"measurement": "signs of ARDS and/or ALI", "setting": "[2]", "value": "diminished"}, {"measurement": "viral burden", "setting": "[2]", "value": "reduced"}, {"measurement": "adverse events leading to early discontinuation of treatment", "setting": "COVID-19 infection; [3]", "value": "mild-moderate grade adverse events possibly linked to study drug in three participants"}, {"measurement": "safety laboratory monitoring during hospitalization", "setting": "COVID-19 infection; [3]", "value": "did not demonstrate any treatment-related abnormal findings"}, {"measurement": "percent mortality", "setting": "COVID-19 infection; 10 participants, death during index hospitalization due to COVID-19 complications", "value": 20, "unit": "%"}, {"measurement": "Median LOS (95% CI)", "setting": "COVID-19 infection; All Subjects, N=10", "value": "5 (4, 29)"}, {"measurement": "Estimated difference in median LOS", "setting": "COVID-19 infection; All Subjects, Compound A vs Match 1 control group (N=16)", "value": 1.5}, {"measurement": "Estimated difference in median LOS", "setting": "COVID-19 infection; All Subjects, Compound A vs Match 2 control group (N=60)", "value": 14}, {"measurement": "Median LOS (95% CI)", "setting": "COVID-19 infection; Surviving Subjects, N=8", "value": "5 (4, 35)"}, {"measurement": "Estimated difference in median LOS (95% CI)", "setting": "COVID-19 infection; Surviving Subjects, Compound A vs Match 1 control group (N=11)", "value": "1 (−2, 19)"}, {"measurement": "Estimated difference in median LOS (95% CI)", "setting": "COVID-19 infection; Surviving Subjects, Compound A vs Match 2 control group (N=43)", "value": "9 (0, 42)"}, {"measurement": "median hospital length of stay", "setting": "COVID-19 infection; [4]", "value": 5, "unit": "days"}, {"measurement": "range of hospital length of stay", "setting": "COVID-19 infection; [4]", "value": "3 to 35", "unit": "days"}, {"measurement": "safety and tolerability", "setting": "COVID-19 infection; hospitalized COVID-19 patients with diabetes mellitus and hypertension, 1500 mg twice daily", "value": "generally safe and well tolerated"}, {"measurement": "participants who survived and were discharged from the hospital", "setting": "COVID-19 infection; of 10 treated participants", "value": "Eight of the ten treated patients survived"}, {"measurement": "progression to mechanical ventilation", "setting": "COVID-19 infection; ten treated patients", "value": "None of the treated patients progressed to mechanical ventilation"}, {"measurement": "mortality compared with matched control groups", "setting": "COVID-19 infection; vs control group 1 (31.3%) and control group 2 (28.3%), vs non-high risk population", "value": "numerically lower; also recorded: decreased to the level observed for the non-high risk population"}, {"measurement": "length of hospital stay compared with matched control groups", "setting": "COVID-19 infection; vs the two matched control groups", "value": "numerically less"}]}]}
